Measured values taken from patent publication US8299267B2, “(3-hydroxy-4-amino-butan-2-yl) -3- (2-thiazol-2-yl-pyrrolidine-1-carbonyl) benzamide derivatives and related compounds as beta-secretase inhibitors for treating” (CoMentis, Inc., priority 2007, dated 2012).
pKi: −log10 of the molar value.

molecular target: memapsin 2 (Homo sapiens, UniProt P56817); assay: Inhibition of memapsin 2 beta-secretase activity toward fluorogenic substrate FS-2; assay type: biochemical; details: memapsin 2, pH 4, 37° C., 20 minutes pre-incubation, substrate FS-2; read-out: M2Ki
Sequence (P56817 46-501): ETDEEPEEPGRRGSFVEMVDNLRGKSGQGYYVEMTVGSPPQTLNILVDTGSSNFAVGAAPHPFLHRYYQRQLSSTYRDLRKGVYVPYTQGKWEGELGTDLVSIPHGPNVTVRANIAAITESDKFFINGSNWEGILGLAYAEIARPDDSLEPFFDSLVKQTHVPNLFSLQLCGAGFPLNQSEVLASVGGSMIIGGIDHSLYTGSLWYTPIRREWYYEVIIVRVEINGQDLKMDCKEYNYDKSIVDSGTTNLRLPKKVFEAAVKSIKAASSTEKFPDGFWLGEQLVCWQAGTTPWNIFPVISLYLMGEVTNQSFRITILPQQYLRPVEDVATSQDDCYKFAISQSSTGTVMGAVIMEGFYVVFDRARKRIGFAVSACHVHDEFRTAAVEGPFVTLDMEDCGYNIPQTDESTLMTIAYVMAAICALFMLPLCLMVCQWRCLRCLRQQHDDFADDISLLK
Protocol: Potency of compounds were determined by measurement of their inhibition of memapsin 2 activity toward a fluorescent substrate. Kinetic inhibition experiments were performed using the procedure as described in Ermolieff, et al. (Biochemistry 39:12450-12456 (2000), the teachings of which are incorporated hereby in their entirety). Briefly, assays were performed at pH 4, 37° C., by pre-incubation of memapsin 2 enzyme with compound for 20 minutes. Activity measurements were initiated by addition of a fluorogenic substrate FS-2 (Bachem Americas, Torrance, Calif.) MCA-SEVNLDAEFK-DNP (SEQ ID NO.: 2). The substrate was derived from 10 amino acids of the human amyloid precursor protein (APP), with the Swedish variant amino acids at the beta-secretase cleavage site. The terminal amino acid was modified from arginine to lysine to facilitate derivatization with a functional group for detection by autofluorescence. The amino acid sequence of the “core” peptide of the substrate is SEVNLDAEFK (SEQ ID NO.: 3). The amino terminus was derivatized with (7-methoxycoumarin-4-yl)acetyl (MCA), and the epsilon amine of the lysine side chain of the terminal residue (K in sequence SEVNLDAEFK (SEQ ID NO.: 4)) was derivatized with 2,4-dinitrophenyl (DNP).

SMILES | pKi
COc1cccc(CNC[C@@H](O)[C@H](Cc2ccccc2)NC(=O)c2cccc(C(=O)N3CCC[C@H]3c3nc(C)cs3)c2)c1 [Compound 4, N-((2S,3R)-3-hydroxy-4-(3-methoxybenzylamino)-1-phenylbutan-2-yl)-3-((S)-2-(4-methylthiazol-2-yl)pyrrolidine-1-carbonyl)benzamide] | < 6.70
COc1cccc(CNC[C@@H](O)[C@H](Cc2ccccc2)NC(=O)c2cccc(C(=O)N3C[C@H](OC)C[C@@H]3c3nc(C)cs3)c2)c1 [Compound 7, N-((2S,3R)-3-hydroxy-4-(3-methoxybenzylamino)-1-phenylbutan-2-yl)-3-((2R,4R)-4-methoxy-2-(4-methylthiazol-2-yl)pyrrolidine-1-carbonyl)benzamide] | < 6.70
COc1cccc(CNC[C@@H](O)[C@H](Cc2ccccc2)NC(=O)c2cccc(C(=O)N3CS(=O)(=O)C[C@@H]3c3nc(C)cs3)c2)c1 [Compound 13, N-((2S,3R)-3-hydroxy-4-(3-methoxybenzylamino)-1-phenylbutan-2-yl)-3-((R)-4-(4-methylthiazol-2-yl)thiazolidine-S-dioxide-3-carbonyl)benzamide] | < 6.70
Cc1csc([C@H]2CCCN2C(=O)c2cccc(C(=O)N[C@@H](Cc3ccccc3)[C@H](O)CNC3CC3)c2)n1 [Compound 19, N-((2S,3R)-4-(cyclopropylamino)-3-hydroxy-1-phenylbutan-2-yl)-3-((R)-2-(4-methylthiazol-2-yl)pyrrolidine-1-carbonyl)benzamide] | < 6.70
Cc1csc([C@H]2CCCN2C(=O)c2cc(C(=O)N[C@@H](Cc3ccccc3)[C@H](O)CNCc3cncc(C(C)(C)F)c3)cc(N(C)C)c2)n1 [Compound 36, 3-(dimethylamino)-N-((2S,3R)-4-((5-(2-fluoropropan-2-yl)pyridin-3-yl)methylamino)-3-hydroxy-1-phenylbutan-2-yl)-5-((R)-2-(4-methylthiazol-2-yl)pyrrolidine-1-carbonyl)benzamide] | > 7.00
COc1cccc([C@H](C)NC[C@@H](O)[C@H](Cc2ccccc2)NC(=O)c2cc(C(=O)N3CCC[C@@H]3c3nc(C)cs3)cc(N(C)C)c2)c1 [Compound 53, 3-(dimethylamino)-N-((2S,3R)-3-hydroxy-4-((S)-1-(3-methoxyphenyl)ethylamino)-1-phenylbutan-2-yl)-5-((R)-2-(4-methylthiazol-2-yl)pyrrolidine-1-carbonyl)benzamide] | 6.70 to 7.00
COc1cc(C(=O)N[C@@H](Cc2ccccc2)[C@H](O)CNCc2cc(Cl)cc(Cl)c2)cc(C(=O)N2CCC[C@@H]2c2nc(C)cs2)c1 [Compound 54, N-((2S,3R)-4-(3,5-dichlorobenzylamino)-3-hydroxy-1-phenylbutan-2-yl)-3-methoxy-5-((R)-2-(4-methylthiazol-2-yl)pyrrolidine-1-carbonyl)benzamide] | > 7.00
Cc1csc([C@H]2CCCN2C(=O)c2cc(C(=O)N[C@@H](Cc3ccccc3)[C@H](O)CNCc3cncc(C(C)(C)F)c3)cc(C(F)F)c2)n1 [Compound 58, 3-(difluoromethyl)-N-((2S,3R)-4-((5-(2-fluoropropan-2-yl)pyridin-3-yl)methylamino)-3-hydroxy-1-phenylbutan-2-yl)-5-((R)-2-(4-methylthiazol-2-yl)pyrrolidine-1-carbonyl)benzamide] | > 7.00
Cc1csc([C@H]2CCCN2C(=O)c2cncc(C(=O)N[C@@H](Cc3ccccc3)[C@H](O)CNCc3cc(C#N)cc(C(C)C)c3)c2)n1 [Compound 61, N-((2S,3R)-4-(3-cyano-5-isopropylbenzylamino)-3-hydroxy-1-phenylbutan-2-yl)-5-((R)-2-(4-methylthiazol-2-yl)pyrrolidine-1-carbonyl)nicotinamide] | > 7.00
Cc1csc([C@H]2CCCN2C(=O)c2cc(C(=O)N[C@@H](Cc3ccccc3)[C@H](O)CNCc3cncc(C(C)C)c3)cc(C(F)F)c2)n1 [Compound 62, 3-(difluoromethyl)-N-((2S,3R)-3-hydroxy-4-((5-isopropylpyridin-3-yl)methylamino)-1-phenylbutan-2-yl)-5-((R)-2-(4-methylthiazol-2-yl)pyrrolidine-1-carbonyl)benzamide] | > 7.00
COc1cccc([C@H](C)NC[C@@H](O)[C@H](Cc2ccccc2)NC(=O)c2cc(C(=O)N3CCC[C@@H]3c3nc(C)cs3)cc(C(F)F)c2)c1 [Compound 63, 3-(difluoromethyl)-N-((2S,3R)-3-hydroxy-4-((S)-1-(3-methoxyphenyl)ethylamino)-1-phenylbutan-2-yl)-5-((R)-2-(4-methylthiazol-2-yl)pyrrolidine-1-carbonyl)benzamide] | > 7.00
Cc1csc(CNC[C@@H](O)[C@H](Cc2ccccc2)NC(=O)c2cccc(C(=O)N3CCC[C@@H]3c3nc(C)cs3)c2)n1 [Compound 67, N-((2S,3R)-3-hydroxy-4-((4-methylthiazol-2-yl)methylamino)-1-phenylbutan-2-yl)-3-((R)-2-(4-methylthiazol-2-yl)pyrrolidine-1-carbonyl)benzamide] | < 6.70
Cc1coc([C@H]2CCCN2C(=O)c2cncc(C(=O)N[C@@H](Cc3ccccc3)[C@H](O)CNCc3cccc(C(F)(F)F)c3)c2)n1 [Compound 72, N-((2S,3R)-3-hydroxy-1-phenyl-4-(3-(trifluoromethyl)benzylamino)butan-2-yl)-5-((R)-2-(4-methyloxazol-2-yl)pyrrolidine-1-carbonyl)nicotinamide] | > 7.00
Cc1cc(C(=O)N2CCC[C@@H]2c2nc(C)co2)cc(C(=O)N[C@@H](Cc2ccccc2)[C@H](O)CNCc2cccc(C(F)(F)F)c2)n1 [Compound 96, N-((2S,3R)-3-hydroxy-1-phenyl-4-(3-(trifluoromethyl)benzylamino)butan-2-yl)-6-methyl-4-((R)-2-(4-methyloxazol-2-yl)pyrrolidine-1-carbonyl)picolinamide] | > 7.00
Cc1cc(C(=O)N[C@@H](Cc2ccccc2)[C@H](O)CNCc2cc3ccccc3o2)cc(C(=O)N2CCC[C@@H]2c2nc(C)cs2)c1 [Compound 97, N-((2S,3R)-4-(benzofuran-2-ylmethylamino)-3-hydroxy-1-phenylbutan-2-yl)-3-methyl-5-((R)-2-(4-methylthiazol-2-yl)pyrrolidine-1-carbonyl)benzamide] | < 6.70
Cc1csc([C@H]2CCCN2C(=O)c2cc(C(=O)N[C@@H](Cc3ccccc3)[C@H](O)CNCc3cccc(C(F)(F)F)c3)cc(N(C)C)n2)n1 [Compound 98, 2-(dimethylamino)-N-((2S,3R)-3-hydroxy-1-phenyl-4-(3-(trifluoromethyl)benzylamino)butan-2-yl)-6-((R)-2-(4-methylthiazol-2-yl)pyrrolidine-1-carbonyl)isonicotinamide] | > 7.00
Cc1csc([C@H]2CCCN2C(=O)c2cccc(C(=O)N[C@@H](Cc3ccccc3)[C@H](O)CNCc3cc(C(C)C)no3)c2)n1 [Compound 99, N-((2S,3R)-3-hydroxy-4-((3-isopropylisoxazol-5-yl)methylamino)-1-phenylbutan-2-yl)-3-((R)-2-(4-methylthiazol-2-yl)pyrrolidine-1-carbonyl)benzamide] | > 7.00
Cc1csc([C@H]2CCCN2C(=O)c2cc(C(=O)N[C@@H](Cc3ccccc3)[C@H](O)CNCc3cccc(C(F)(F)F)c3)nc(N(C)C)n2)n1 [Compound 100, 2-(dimethylamino)-N-((2S,3R)-3-hydroxy-1-phenyl-4-(3-(trifluoromethyl)benzylamino)butan-2-yl)-6-((R)-2-(4-methylthiazol-2-yl)pyrrolidine-1-carbonyl)pyrimidine-4-carboxamide] | > 7.00
Cc1csc([C@H]2CCCN2C(=O)c2cccc(C(=O)N[C@@H](Cc3ccccc3)[C@H](O)CNCc3cc(C(C)C)on3)c2)n1 [Compound 106, N-((2S,3R)-3-hydroxy-4-((5-isopropylisoxazol-3-yl)methylamino)-1-phenylbutan-2-yl)-3-((R)-2-(4-methylthiazol-2-yl)pyrrolidine-1-carbonyl)benzamide] | > 7.00
Cc1coc([C@H]2CCCN2C(=O)c2cccc(C(=O)N[C@@H](Cc3ccccc3)[C@H](O)CNC3CCCCC3)c2)n1 [Compound 107, N-((2S,3R)-4-(cyclohexylamino)-3-hydroxy-1-phenylbutan-2-yl)-3-((R)-2-(4-methyloxazol-2-yl)pyrrolidine-1-carbonyl)benzamide] | < 6.70
C=C(C)c1cccc(CNC[C@@H](O)[C@H](Cc2ccccc2)NC(=O)c2cc(C)cc(C(=O)N3CCC[C@@H]3c3nc(C)co3)c2)c1 [Compound 108, N-((2S,3R)-3-hydroxy-1-phenyl-4-(3-(prop-1-en-2-yl)benzylamino)butan-2-yl)-3-methyl-5-((R)-2-(4-methyloxazol-2-yl)pyrrolidine-1-carbonyl)benzamide] | > 7.00
CCn1cc(CNC[C@@H](O)[C@H](Cc2ccccc2)NC(=O)c2cccc(C(=O)N3CCC[C@@H]3c3nc(C)co3)c2)cn1 [Compound 109, N-((2S,3R)-4-((1-ethyl-1H-pyrazol-4-yl)methylamino)-3-hydroxy-1-phenylbutan-2-yl)-3-((R)-2-(4-methyloxazol-2-yl)pyrrolidine-1-carbonyl)benzamide] | 6.70 to 7.00
CCn1cc(CNC[C@@H](O)[C@H](Cc2ccccc2)NC(=O)c2cc(C)cc(C(=O)N3CCC[C@@H]3c3nc(C)co3)c2)cn1 [Compound 110, N-((2S,3R)-4-((1-ethyl-1H-pyrazol-4-yl)methylamino)-3-hydroxy-1-phenylbutan-2-yl)-3-methyl-5-((R)-2-(4-methyloxazol-2-yl)pyrrolidine-1-carbonyl)benzamide] | > 7.00
